Our source for the IC50 and inhibition values is ChEMBL document CHEMBL4270481, “ALK5 kinase inhibitory activity and synthesis of 2,3,4-substituted 5,5-dimethyl-5,6-dihydro-4H-pyrrolo[1,2-b]pyrazoles” (Eur J Med Chem, 2017).

One experiment addresses T1, TGF-beta receptor type-1 (Homo sapiens, UniProt P36897).
T1 sequence (P36897 whole entry): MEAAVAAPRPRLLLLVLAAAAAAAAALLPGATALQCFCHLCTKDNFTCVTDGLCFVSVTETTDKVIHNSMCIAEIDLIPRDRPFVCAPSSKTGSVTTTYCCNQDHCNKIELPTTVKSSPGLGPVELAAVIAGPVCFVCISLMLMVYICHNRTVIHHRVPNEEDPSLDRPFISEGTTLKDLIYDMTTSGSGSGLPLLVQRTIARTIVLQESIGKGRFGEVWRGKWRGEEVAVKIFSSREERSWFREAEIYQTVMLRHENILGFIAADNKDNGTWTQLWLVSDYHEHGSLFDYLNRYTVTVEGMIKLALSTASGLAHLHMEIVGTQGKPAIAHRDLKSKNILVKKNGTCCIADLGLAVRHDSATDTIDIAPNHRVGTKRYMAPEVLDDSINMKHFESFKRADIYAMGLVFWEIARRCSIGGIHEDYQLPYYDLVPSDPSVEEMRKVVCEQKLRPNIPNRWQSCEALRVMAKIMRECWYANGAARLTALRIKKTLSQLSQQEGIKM
Description: Inhibition of human ALK5 expressed in Sf9 insect cells using casein as substrate in presence of [gamma-33P]ATP. Type of experiment: cell-based.

Experiment [1] deals with Cyclin-dependent kinase 2/cyclin E1 (Homo sapiens, UniProt P24941). Description: Inhibition of human CDK2/cyclin E expressed in Sf9 insect cells using histone H1 as substrate in presence of [gamma-33P]ATP. Type of experiment: cell-based.
The target in experiment [2] is Tyrosine-protein kinase ABL1 (Mus musculus, UniProt P00520). As to the kind of experiment: biochemical. Type of experiment: cell-based, Sf9.
Tyrosine-protein kinase ABL1, sequence (P00520 whole entry): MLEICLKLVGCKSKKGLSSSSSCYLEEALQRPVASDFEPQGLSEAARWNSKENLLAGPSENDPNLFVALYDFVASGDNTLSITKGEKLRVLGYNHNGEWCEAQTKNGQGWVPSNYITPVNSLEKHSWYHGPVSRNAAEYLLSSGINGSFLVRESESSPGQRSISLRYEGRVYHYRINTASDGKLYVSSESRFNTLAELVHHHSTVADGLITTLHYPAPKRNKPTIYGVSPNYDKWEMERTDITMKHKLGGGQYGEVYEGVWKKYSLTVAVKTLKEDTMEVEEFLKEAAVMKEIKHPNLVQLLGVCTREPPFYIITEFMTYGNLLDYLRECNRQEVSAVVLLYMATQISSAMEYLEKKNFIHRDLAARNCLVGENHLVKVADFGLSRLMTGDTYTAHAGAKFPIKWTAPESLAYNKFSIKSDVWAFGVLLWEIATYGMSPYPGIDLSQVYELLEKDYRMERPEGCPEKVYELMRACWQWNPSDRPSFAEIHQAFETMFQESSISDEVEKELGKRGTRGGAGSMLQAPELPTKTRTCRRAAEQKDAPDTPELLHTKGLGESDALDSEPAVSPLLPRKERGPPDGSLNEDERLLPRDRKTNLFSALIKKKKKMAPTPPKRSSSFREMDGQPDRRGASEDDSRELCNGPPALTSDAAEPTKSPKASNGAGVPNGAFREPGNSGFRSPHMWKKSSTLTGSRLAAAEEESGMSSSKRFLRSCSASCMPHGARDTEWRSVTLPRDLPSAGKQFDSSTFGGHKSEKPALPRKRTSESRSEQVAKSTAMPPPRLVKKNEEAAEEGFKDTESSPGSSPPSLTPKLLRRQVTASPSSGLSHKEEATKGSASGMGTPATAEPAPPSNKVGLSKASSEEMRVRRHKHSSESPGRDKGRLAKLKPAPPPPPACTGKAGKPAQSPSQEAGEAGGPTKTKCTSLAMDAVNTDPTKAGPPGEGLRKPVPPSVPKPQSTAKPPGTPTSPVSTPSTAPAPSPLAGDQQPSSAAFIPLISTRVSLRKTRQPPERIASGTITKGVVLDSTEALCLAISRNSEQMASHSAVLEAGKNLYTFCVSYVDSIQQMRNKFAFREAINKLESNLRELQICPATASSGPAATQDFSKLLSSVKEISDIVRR
Another experiment relates to K562. Description: Cytotoxicity against human K562 cells assessed as decrease in cell proliferation after 72 hrs by calcein AM staining-based assay. Type of experiment: functional. The settings on record: K562, 72 h.
The test system of a further experiment is MCF7. Description: Cytotoxicity against human MCF7 cells assessed as decrease in cell proliferation after 72 hrs by calcein AM staining-based assay. Type of experiment: functional. The settings on record: MCF7, 72 h.
The target in experiment [3] is T2, TGF-beta receptor type-1 (Homo sapiens) (UniProt P36897).
T2 sequence (whole entry): T1 sequence (P36897 whole entry)
Conditions: HeLa, at 1 µM.
Description: Inhibition of ALK5 in serum starved human HeLa cells assessed as reduction in TGF-beta-induced SMAD2/3 nuclear transaction at 1 uM pre-incubated for 30 mins before TGF-beta stimulation for 30 mins by immunofluorescence analysis

The source made the active and inactive calls. No cut-off for these calls is given here.

Usually IC50 stands for the concentration needed to halve the response being measured. As for `CC1c2c(-c3ccncc3)c(-c3ccccc3C#N)nn2CC1(C)C` (stereo not given), the IC50 on TGF-beta receptor type-1 is 1.29 µM; in experiment [1], greater than 100 µM; in experiment [2] it was 11 µM; in the experiment on K562 it was 77 µM; in the experiment on MCF7 it was greater than 100 µM.

As to `COc1ccc(-c2c(-c3cccc(C)n3)nn3c2C(C)C(C)(C)C3)cc1` (stereo not given), the IC50 is 0.612 µM at TGF-beta receptor type-1; greater than 100 µM in experiment [1]; greater than 100 µM in experiment [2]; 88 µM in the experiment with K562; 66 µM in the experiment on MCF7.

With `Cc1cc(-c2c(-c3cccc(C)n3)nn3c2C(C)C(C)(C)C3)ccn1` (stereo not given), the IC50 at TGF-beta receptor type-1 is 0.548 µM; in experiment [1], greater than 100 µM; in experiment [2], 25 µM; with K562, greater than 100 µM; in the experiment on MCF7, greater than 100 µM.

Take `Cc1cccc(-c2n[nH]cc2-c2ccc3ncccc3n2)n1` [GW786460X]: the 50% inhibitory concentration (IC50) in experiment [1] is greater than 100 µM; in experiment [2], 21 µM; in the experiment with K562 it was greater than 100 µM; in the experiment with MCF7, greater than 100 µM. The inhibition result in experiment [3] was “Active”.

As to `Cc1cccc(-c2nn3c(c2-c2ccnc(Nc4ccc(S(N)(=O)=O)cc4)c2)C(C)C(C)(C)C3)n1` (stereo not given), the half-inhibitory concentration (IC50) is 0.154 µM at TGF-beta receptor type-1; 11 µM in experiment [1]; 0.55 µM in experiment [2]; 31 µM in the experiment with K562; 22 µM in the experiment with MCF7.

With `CCc1cccc(-c2nn3c(c2-c2ccc(O)cc2)C(C)C(C)(C)C3)n1` (stereo not given), the half-maximal inhibitory concentration (IC50) at TGF-beta receptor type-1 is 0.098 µM; in experiment [1], greater than 100 µM; in experiment [2] it was greater than 100 µM; in the experiment on K562, greater than 100 µM; with MCF7, 46 µM.

For the molecule `CC1c2c(-c3ccc(O)cc3)c(-c3ccccc3C#N)nn2CC1(C)C` (stereo not given), the 50% inhibitory concentration (IC50) on TGF-beta receptor type-1 was 5.19 µM; in experiment [1], greater than 12 µM; in experiment [2] it was greater than 12 µM; in the experiment with K562, greater than 12 µM; with MCF7, greater than 12 µM.

On to `Cc1cccc(-c2nn3c(c2-c2ccnc(Cl)c2)CC(C)(C)C3)n1`, for which the IC50 at TGF-beta receptor type-1 was 1.23 µM; in experiment [1], greater than 100 µM; in experiment [2], greater than 100 µM; in the experiment with K562, greater than 100 µM; with MCF7 it was greater than 100 µM.

On to `Cc1cccc(-c2nn3c(c2-c2ccc(O)cc2)[C@@H](C)C(C)(C)C3)n1`, for which the IC50 at TGF-beta receptor type-1 is 0.197 µM; in experiment [1] it was greater than 25 µM; in experiment [2] it was greater than 100 µM; in the experiment on K562 it was greater than 50 µM; in the experiment with MCF7 it was greater than 50 µM.

Turning to `Cc1cccc(-c2nn3c(c2-c2ccnc(Cl)c2)C(C)C(C)(C)C3)n1` (stereo not given), the IC50 at TGF-beta receptor type-1 is 0.517 µM; in experiment [1] it was greater than 100 µM; in experiment [2], greater than 100 µM; in the experiment with K562, greater than 100 µM; in the experiment on MCF7, greater than 100 µM.

`CCc1cccc(-c2nn3c(c2-c2ccc(O)cc2)[C@@H](C)C(C)(C)C3)n1`: the IC50 on TGF-beta receptor type-1 was 0.261 µM; in experiment [1], 53 µM; in experiment [2], greater than 100 µM; with K562 it was 77 µM; in the experiment with MCF7, 58 µM.

As for `CCc1cccc(-c2nn3c(c2-c2ccc(O)cc2)[C@H](C)C(C)(C)C3)n1`, the IC50 on TGF-beta receptor type-1 is 0.137 µM; in experiment [1] it was greater than 100 µM; in experiment [2] it was greater than 100 µM; in the experiment with K562, greater than 100 µM; in the experiment on MCF7 it was greater than 100 µM.

On to `CC1(C)Cc2c(-c3ccncc3)c(-c3ccccc3C#N)nn2C1`, for which the IC50 at TGF-beta receptor type-1 is 2.52 µM; in experiment [1], greater than 100 µM; in experiment [2] it was 20 µM; in the experiment with K562 it was greater than 100 µM; with MCF7, greater than 100 µM.

Take `Cc1cccc(-c2nn3c(c2-c2ccnc(Nc4ccc(S(N)(=O)=O)cc4)c2)CC(C)(C)C3)n1`: the concentration for half-maximal inhibition (IC50) at TGF-beta receptor type-1 was 0.147 µM; in experiment [1], greater than 100 µM; in experiment [2], 2.5 µM; in the experiment with K562, 52 µM; in the experiment with MCF7 it was 92 µM.

`CCc1cccc(-c2nn3c(c2-c2ccc(OC)cc2)C(C)C(C)(C)C3)n1` (stereo not given): the IC50 on TGF-beta receptor type-1 is 0.805 µM; in experiment [1], greater than 100 µM; in experiment [2], greater than 100 µM; with K562, 64 µM; in the experiment with MCF7, 45 µM.

As for `CC1(C)Cc2c(-c3ccc(O)cc3)c(-c3ccccn3)nn2C1`, the IC50 is 1.99 µM on TGF-beta receptor type-1; greater than 100 µM in experiment [1]; greater than 100 µM in experiment [2]; 74 µM in the experiment with K562; greater than 100 µM with MCF7.

Regarding `Cc1cccc(-c2nn3c(c2-c2ccncc2)CC(C)(C)C3)n1`, the IC50 is 0.406 µM at TGF-beta receptor type-1; greater than 100 µM in experiment [1]; 26 µM in experiment [2]; greater than 100 µM with K562; greater than 100 µM in the experiment on MCF7.

For `Cc1cccc(-c2nn3c(c2-c2ccncc2)C(C)C(C)(C)C3)c1C#N` (stereo not given), the IC50 is 0.162 µM at TGF-beta receptor type-1; greater than 100 µM in experiment [1]; 6.4 µM in experiment [2]; 92 µM in the experiment on K562; 97 µM in the experiment with MCF7.

`COCC1c2c(-c3ccncc3)c(-c3cccc(C)n3)nn2CC1(C)C` (stereo not given): the IC50 on TGF-beta receptor type-1 was 0.743 µM; in experiment [1] it was greater than 100 µM; in experiment [2], 25 µM; in the experiment on K562, greater than 100 µM; in the experiment with MCF7, greater than 100 µM.

`CCOC(=O)c1ccc(-c2c(-c3cccc(C)n3)nn3c2C(C)C(C)(C)C3)cc1` (stereo not given): the IC50 at TGF-beta receptor type-1 was 2.01 µM; in experiment [1], greater than 100 µM; in experiment [2] it was greater than 100 µM; in the experiment on K562, 45 µM; in the experiment with MCF7, 29 µM.

With `CCc1cccc(-c2nn3c(c2-c2ccnc(Nc4ccc(S(N)(=O)=O)cc4)c2)C(C)C(C)(C)C3)n1` (stereo not given), the IC50 is 0.229 µM on TGF-beta receptor type-1; 37 µM in experiment [1]; 6.8 µM in experiment [2]; 24 µM in the experiment on K562; 28 µM with MCF7.

On to `CCc1cccc(-c2nn3c(c2-c2ccncc2)C(C)C(C)(C)C3)n1` (stereo not given), for which the IC50 was 0.183 µM at TGF-beta receptor type-1; greater than 100 µM in experiment [1]; 43 µM in experiment [2]; greater than 100 µM in the experiment with K562; greater than 100 µM in the experiment with MCF7.

In the case of `Cc1cccc(-c2nn3c(c2-c2ccncc2)C(CO)C(C)(C)C3)n1` (stereo not given), the IC50 is 1.41 µM on TGF-beta receptor type-1; greater than 100 µM in experiment [1]; 93 µM in experiment [2]; greater than 100 µM in the experiment on K562; greater than 100 µM in the experiment on MCF7.

Regarding `Cc1cccc(-c2nn3c(c2-c2ccncc2)C(C)C(C)(C)C3)n1` (stereo not given), the IC50 was 0.181 µM at TGF-beta receptor type-1; greater than 100 µM in experiment [1]; 21 µM in experiment [2]; greater than 100 µM with K562; greater than 100 µM with MCF7.

Take `Cc1cccc(-c2nn3c(c2-c2ccc(O)cc2)CC(C)(C)C3)n1`: the IC50 on TGF-beta receptor type-1 is 0.229 µM; in experiment [1] it was greater than 100 µM; in experiment [2] it was 20 µM; with K562, greater than 25 µM; with MCF7, greater than 25 µM.

For the molecule `CCc1cccc(-c2nn3c(c2-c2ccnc(Cl)c2)C(C)C(C)(C)C3)n1` (stereo not given), the IC50 on TGF-beta receptor type-1 was 2.74 µM; in experiment [1] it was greater than 100 µM; in experiment [2] it was greater than 100 µM; in the experiment with K562, 82 µM; with MCF7, greater than 100 µM.

Consider `Cc1cccc(-c2nn3c(c2-c2ccc(O)cc2)[C@H](C)C(C)(C)C3)n1`, for which the IC50 at TGF-beta receptor type-1 was 0.097 µM; in experiment [1], greater than 100 µM; in experiment [2] it was greater than 100 µM; in the experiment with K562, greater than 100 µM; with MCF7, greater than 100 µM.

Turning to `Cc1cccc(-c2nn3c(c2-c2ccc(O)cc2)C(C)C(C)(C)C3)c1C#N` (stereo not given), the IC50 on TGF-beta receptor type-1 was 0.341 µM; in experiment [1], greater than 12 µM; in experiment [2], greater than 12 µM; with K562 it was greater than 12 µM; with MCF7, greater than 12 µM.

As for `CC1(C)Cc2c(-c3ccncc3)c(-c3ccccn3)nn2C1`, the IC50 at TGF-beta receptor type-1 is 1.94 µM; in experiment [1], greater than 50 µM; in experiment [2], greater than 50 µM; with K562 it was greater than 100 µM; in the experiment with MCF7 it was greater than 100 µM.
